pKi: −log10 of the molar value.
Target: T1, human NK3 receptor (Homo sapiens, UniProt P29371)
T1 construct: expressed in transfected cells; host or cells: HEK293 cells (transient expression), membrane preparation
T1 sequence (P29371 1-465): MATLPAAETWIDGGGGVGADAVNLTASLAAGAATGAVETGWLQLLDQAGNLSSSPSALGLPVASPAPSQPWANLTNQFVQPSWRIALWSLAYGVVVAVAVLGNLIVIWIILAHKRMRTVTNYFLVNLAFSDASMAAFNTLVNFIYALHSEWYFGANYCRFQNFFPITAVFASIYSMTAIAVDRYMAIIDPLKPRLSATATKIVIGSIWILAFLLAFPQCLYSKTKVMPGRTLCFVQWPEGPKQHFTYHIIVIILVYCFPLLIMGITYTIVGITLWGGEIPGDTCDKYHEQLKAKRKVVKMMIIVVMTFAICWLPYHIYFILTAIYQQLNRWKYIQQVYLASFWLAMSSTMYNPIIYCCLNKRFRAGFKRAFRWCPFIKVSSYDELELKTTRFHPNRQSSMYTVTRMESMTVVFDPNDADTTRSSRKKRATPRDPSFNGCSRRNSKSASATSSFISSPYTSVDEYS
Assay: [3H]SR142801 competition binding assay
Details: hNK3 receptor binding, [3H]SR142801, membranes from HEK293 cells transiently expressing recombinant human NK3 receptor
Description: [^3H]SR142801 Competition Binding Assay
hNK3 receptor binding experiment were performed using [^3H]SR142801 (Catalog No. TRK1035, specific activity: 74.0 Ci/mmol, Amersham, GE Healthcare UK limited, Buckinghamshire, UK) and membrane isolated from HEK293 cells transiently expressing recombinant human NK3 receptor. After thawing, the membrane homogenates were centrifuged at 48,000×g for 10 min at 4° C., the pellets were resuspended in the 50 mM Tris-HCl, 4 mM MnCl2, 1 μM phosphoramidon, 0.1% BSA binding buffer at pH 7.4 to a final assay concentration of 5 μg protein/well. For inhibition experiments, membranes were incubated with [^3H]SR142801 at a concentration equal to KD value of radioligand and 10 concentrations of the inhibitory compound (0.0003-10 μM) (in a total reaction volume of 500 μl) for 75 min at room temperature (RT). At the end of the incubation, membranes were filtered onto unitfilter (96-well white microplate with bonded GF/C filter preincubated 1 h in 0.3% PEI+0.3% BSA, Packard BioScience, Meriden, Conn.) with a Filtermate 196 harvester (Packard BioScience) and washed 4 times with ice-cold 50 mM Tris-HCl, pH 7.4 buffer. Nonspecific binding was measured in the presence of 10 μM SB222200 for both radioligands. The radioactivity on the filter was counted (5 min) on a Packard Top-count microplate scintillation counter with quenching correction after addition of 45 μl of microscint 40 (Canberra Packard S. A., Zürich, Switzerland) and shaking for 1 h. Inhibition curves were fitted according to the Hill equation: y=100/(1+(x/IC50)^nH), where nH=slope factor using Excel-fit 4 software (Microsoft). IC50 values were derived from the inhibition curve and the affinity constant (Ki) values were calculated using the Cheng-Prussoff equation Ki=IC50/(1+[L]/KD) where [L] is the concentration of radioligand and KD is its dissociation constant at the receptor, derived from the saturation isotherm. All experiments were performed in duplicate and the mean±standard error (SEM) of the individual Ki values was calculated.

Row | Compound | pKi
1 | CN(Cc1ccc(C#N)cc1)[C@H]1CN(C(=O)N2CCN(S(C)(=O)=O)CC2)C[C@@H]1c1ccc(Cl)c(Cl)c1 (racemic) [Example 34, 4-({[(3RS,4SR)-4-(3,4-Dichloro-phenyl)-1-(4-methanesulfonyl-piperazine-1-carbonyl)-pyrrolidin-3-yl]-methyl-amino}-methyl)-benzonitrile] | 7.49
2 | CN(Cc1ccc(F)c(F)c1)[C@H]1CN(C(=O)N2CCN(S(C)(=O)=O)CC2)C[C@@H]1c1ccc(Cl)c(Cl)c1 (racemic) [Example 36, {(3SR,4RS)-3-(3,4-Dichloro-phenyl)-4-[(3,4-difluoro-benzyl)-methyl-amino]-pyrrolidin-1-yl}-(4-methanesulfonyl-piperazin-1-yl)-methanone] | 7.28
3 | CN(Cc1ccc2c(c1)OCC2)[C@H]1CN(C(=O)N2CCN(S(C)(=O)=O)CC2)C[C@@H]1c1ccc(Cl)c(Cl)c1 (racemic) [Example 37, {(3SR,4RS)-3-(3,4-Dichloro-phenyl)-4-[(2,3-dihydro-benzofuran-6-ylmethyl)-methyl-amino]-pyrrolidin-1-yl}-(4-methanesulfonyl-piperazin-1-yl)-methanone] | 7.12
4 | Cc1cc(CN(C)[C@H]2CN(C(=O)N3CCN(S(C)(=O)=O)CC3)C[C@@H]2c2ccc(Cl)c(Cl)c2)ccc1F (racemic) [Example 43, {(3SR,4RS)-3-(3,4-Dichloro-phenyl)-4-[(4-fluoro-3-methyl-benzyl)-methyl-amino]-pyrrolidin-1-yl}-(4-methanesulfonyl-piperazin-1-yl)-methanone] | 7.07
5 | CN(Cc1ccc2cc[nH]c2c1)[C@H]1CN(C(=O)N2CCN(S(C)(=O)=O)CC2)C[C@@H]1c1ccc(Cl)c(Cl)c1 (racemic) [Example 47, {(3SR,4RS)-3-(3,4-Dichloro-phenyl)-4-[(1H-indol-6-ylmethyl)-methyl-amino]-pyrrolidin-1-yl}-(4-methanesulfonyl-piperazin-1-yl)-methanone] | 7.16
6 | CC(=O)N1CCN(C(=O)N2C[C@H](c3ccc(Cl)c(Cl)c3)[C@@H](N(C)Cc3ccc(C(F)(F)F)c(F)c3)C2)CC1 (racemic) [Example 51, 1-(4-{(3SR,4RS)-3-(3,4-Dichloro-phenyl)-4-[(3-fluoro-4-trifluoromethyl-benzyl)-methyl-amino]-pyrrolidine-1-carbonyl}-piperazin-1-yl)-ethanone] | 7.76
7 | CN(Cc1ccc(C(F)(F)F)c(F)c1)[C@H]1CN(C(=O)N2CCOCC2)C[C@@H]1c1ccc(Cl)c(Cl)c1 (racemic) [Example 52, {(3SR,4RS)-3-(3,4-Dichloro-phenyl)-4-[(3-fluoro-4-trifluoromethyl-benzyl)-methyl-amino]-pyrrolidin-1-yl}-morpholin-4-yl-methanone] | 7.15
8 | CN(Cc1ccc(C#N)c(F)c1)[C@H]1CN(C(=O)N2CCN(S(C)(=O)=O)CC2)C[C@@H]1c1ccc(Cl)c(Cl)c1 (racemic) [Example 56, 4-({[(3RS,4SR)-4-(3,4-Dichloro-phenyl)-1-(4-methanesulfonyl-piperazine-1-carbonyl)-pyrrolidin-3-yl]-methyl-amino}-methyl)-2-fluoro-benzonitrile] | 7.66
9 | CN(Cc1ccc(C(F)(F)F)c(F)c1)[C@H]1CN(C(=O)CCCCN2CCOCC2)C[C@@H]1c1ccc(Cl)c(Cl)c1 (racemic) [Example 62, 1-{(3SR,4RS)-3-(3,4-Dichloro-phenyl)-4-[(3-fluoro-4-trifluoromethyl-benzyl)-methyl-amino]-pyrrolidin-1-yl}-5-morpholin-4-yl-pentan-1-one] | 7.96
10 | CN(Cc1ccc(C(F)(F)F)c(F)c1)[C@H]1CN(C(=O)N2CCN(c3ncccn3)CC2)C[C@@H]1c1ccc(Cl)c(Cl)c1 (racemic) [Example 63, {(3SR,4RS)-3-(3,4-Dichloro-phenyl)-4-[(3-fluoro-4-trifluoromethyl-benzyl)-methyl-amino]-pyrrolidin-1-yl}-(4-pyrimidin-2-yl-piperazin-1-yl)-methanone] | 8.07
11 | CN(Cc1ccc(C(F)(F)F)c(F)c1)[C@H]1CN(C(=O)N2CCN(CCO)CC2)C[C@@H]1c1ccc(Cl)c(Cl)c1 (racemic) [Example 67, {(3SR,4RS)-3-(3,4-Dichloro-phenyl)-4-[(3-fluoro-4-trifluoromethyl-benzyl)-methyl-amino]-pyrrolidin-1-yl}-[4-(2-hydroxy-ethyl)-piperazin-1-yl]-methanone] | 8.21
12 | CN(Cc1ccc(C(F)(F)F)c(F)c1)[C@H]1CN(C(=O)N2CCN(c3ccncc3)CC2)C[C@@H]1c1ccc(Cl)c(Cl)c1 (racemic) [Example 68, {(3SR,4RS)-3-(3,4-Dichloro-phenyl)-4-[(3-fluoro-4-trifluoromethyl-benzyl)-methyl-amino]-pyrrolidin-1-yl}-(4-pyridin-4-yl-piperazin-1-yl)-methanone] | 8.23
13 | CN(Cc1ccc(C(F)(F)F)c(F)c1)[C@H]1CN(C(=O)N2CCN(c3ccccc3C#N)CC2)C[C@@H]1c1ccc(Cl)c(Cl)c1 (racemic) [Example 70, 2-(4-{(3SR,4RS)-3-(3,4-Dichloro-phenyl)-4-[(3-fluoro-4-trifluoromethyl-benzyl)-methyl-amino]-pyrrolidine-1-carbonyl}-piperazin-1-yl)-benzonitrile] | 7.98
14 | CN(C)CCCN1CCN(C(=O)N2C[C@H](c3ccc(Cl)c(Cl)c3)[C@@H](N(C)Cc3ccc(C(F)(F)F)c(F)c3)C2)CC1 (racemic) [Example 74, {(3SR,4RS)-3-(3,4-Dichloro-phenyl)-4-[(3-fluoro-4-trifluoromethyl-benzyl)-methyl-amino]-pyrrolidin-1-yl}-[4-(3-dimethylamino-propyl)-piperazin-1-yl]-methanone] | 8.27

Stronger by pKi, values ahead:

Row | pKi | Compound
15 | 8.33 | CN(Cc1ccc(C(F)(F)F)c(F)c1)[C@H]1CN(C(=O)N2CCN(c3cnccn3)CC2)C[C@@H]1c1ccc(Cl)c(Cl)c1 (racemic) [Example 69, {(3SR,4RS)-3-(3,4-Dichloro-phenyl)-4-[(3-fluoro-4-trifluoromethyl-benzyl)-methyl-amino]-pyrrolidin-1-yl}-(2,3,5,6-tetrahydro-[1,2′]bipyrazinyl-4-yl)-methanone]
16 | 8.39 | CN(Cc1ccc(C(F)(F)F)c(F)c1)[C@H]1CN(C(=O)N2CCN(c3ccccn3)CC2)C[C@@H]1c1ccc(Cl)c(Cl)c1 (racemic) [Example 65, {(3SR,4RS)-3-(3,4-Dichloro-phenyl)-4-[(3-fluoro-4-trifluoromethyl-benzyl)-methyl-amino]-pyrrolidin-1-yl}-(4-pyridin-2-yl-piperazin-1-yl)-methanone]
17 | 8.52 | CN(Cc1ccc(C(F)(F)F)c(F)c1)[C@H]1CN(C(=O)N2CCN(CCCO)CC2)C[C@@H]1c1ccc(Cl)c(Cl)c1 (racemic) [Example 66, {(3SR,4RS)-3-(3,4-Dichloro-phenyl)-4-[(3-fluoro-4-trifluoromethyl-benzyl)-methyl-amino]-pyrrolidin-1-yl}-[4-(3-hydroxy-propyl)-piperazin-1-yl]-methanone]
18 | 8.55 | COc1ccc(N2CCN(C(=O)N3C[C@H](c4ccc(Cl)c(Cl)c4)[C@@H](N(C)Cc4ccc(C(F)(F)F)c(F)c4)C3)CC2)cc1 (racemic) [Example 64, {(3SR,4RS)-3-(3,4-Dichloro-phenyl)-4-[(3-fluoro-4-trifluoromethyl-benzyl)-methyl-amino]-pyrrolidin-1-yl}-[4-(4-methoxy-phenyl)-piperazin-1-yl]-methanone]
19 | 8.57 | CN(Cc1ccc(C(F)(F)F)c(F)c1)[C@H]1CN(C(=O)N2CCN(c3ccc(C#N)cc3)CC2)C[C@@H]1c1ccc(Cl)c(Cl)c1 (racemic) [Example 72, 4-(4-{(3SR,4RS)-3-(3,4-Dichloro-phenyl)-4-[(3-fluoro-4-trifluoromethyl-benzyl)-methyl-amino]-pyrrolidine-1-carbonyl}-piperazin-1-yl)-benzonitrile]
20 | 8.72 | CN(Cc1ccc(C(F)(F)F)c(F)c1)[C@H]1CN(C(=O)N2CCN(c3ccc(C#N)cn3)CC2)C[C@@H]1c1ccc(Cl)c(Cl)c1 (racemic) [Example 73, 6-(4-{(3SR,4RS)-3-(3,4-Dichloro-phenyl)-4-[(3-fluoro-4-trifluoromethyl-benzyl)-methyl-amino]-pyrrolidine-1-carbonyl}-piperazin-1-yl)-nicotinonitrile]

Source: patent US8022099B2, “N-benzyl pyrrolidine derivatives” (Hoffmann-La Roche Inc., priority 2008, dated 2011)
